# pIC50, pKd: −log10 of the molar value. Where two headings read alike, the source gives them in different places.
# Legend:
# [1] = molecular target: GDP-bound KRAS wild-type protein (Homo sapiens, UniProt P01116); assay: Binding to KRAS by surface plasmon resonance (SPR), dissociation constant KD
# Outline: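 Single-cycle kinetics on GDP-loaded biotin-Avi RAS captured to ~100–300 RU; 75 s ascending injections, 100 µL/min, 30°C. HBS pH 7.4 + 10 mM MgCl2/10 µM GDP/4% DMSO. 1:1 fit, KD.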
# [2] = molecular target: GDP-bound NRAS wild-type protein (Homo sapiens, UniProt P01111); assay: Binding to NRAS by surface plasmon resonance (SPR), KD and KD ratio to KRAS
# Outline: (§1)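 Recombinant RAS proteins bearing a biotinylated Avi tag and loaded with GDP served as the captured ligand, recaptured fresh every cycle. Binding responses were referenced to an uncoated surface and a buffer-only blank cycle. Dissociation constants were obtained by 1:1 model fitting at 30°C.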
# HRAS wild-type protein = HRAS wild-type protein (Homo sapiens, UniProt P01112); assay: Binding to HRAS by surface plasmon resonance (SPR), KD and KD ratio to KRAS
# Outline: as §1
# [3] = test system: human lung cancer strain NCI-H441; assay: NCI-H441 cell proliferation inhibitory activity (CellTiter-Glo, 4 days); format: cell-based; settings: read-out: NCl-H441 IC50
# Protocol: A test compound was dispensed into a U-bottom 384-well plate as 40 nL serially diluted dimethyl sulfoxide solutions using a liquid handler Echo (LABCYTE). […] This cell suspension was dispensed in an amount of 40 µL per well into a plate containing the test compound, and cultured at 37°C in a 5% carbon dioxide gas incubator. Four days later, 20 µL of CellTiter-Glo (registered trademark) (Promega) was added to each well and […] was measured. […]
# [4] = ratio of KD for GDP-bound NRAS wild-type protein to KD for KRAS
# [5] = ratio of KD for HRAS wild-type protein to KD for KRAS
# [6] = Single Cycle Kinetics, 1:1 binding model
# [7] = ratio of KD with respect to GDP-bound NRAS wild-type protein to KD with respect to KRAS
# [8] = ratio of KD with respect to HRAS wild-type protein to KD with respect to KRAS
# [9] = 50% proliferation inhibitory concentration, four days
# Chain of GDP-bound KRAS wild-type protein (P01116 1-188 isoform P01116-2): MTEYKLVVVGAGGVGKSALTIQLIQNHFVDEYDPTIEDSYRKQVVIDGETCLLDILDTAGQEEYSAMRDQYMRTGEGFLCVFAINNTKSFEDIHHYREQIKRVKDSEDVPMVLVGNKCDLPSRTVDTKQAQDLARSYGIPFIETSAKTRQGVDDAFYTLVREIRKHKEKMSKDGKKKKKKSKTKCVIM
# Chain of GDP-bound NRAS wild-type protein (P01111 whole entry): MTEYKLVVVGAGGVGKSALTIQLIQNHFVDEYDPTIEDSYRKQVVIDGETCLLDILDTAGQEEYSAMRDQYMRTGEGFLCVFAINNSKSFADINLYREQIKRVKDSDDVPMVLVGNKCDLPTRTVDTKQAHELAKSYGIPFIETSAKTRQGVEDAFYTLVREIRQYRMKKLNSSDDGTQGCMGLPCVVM
# Chain of HRAS wild-type protein (P01112 whole entry): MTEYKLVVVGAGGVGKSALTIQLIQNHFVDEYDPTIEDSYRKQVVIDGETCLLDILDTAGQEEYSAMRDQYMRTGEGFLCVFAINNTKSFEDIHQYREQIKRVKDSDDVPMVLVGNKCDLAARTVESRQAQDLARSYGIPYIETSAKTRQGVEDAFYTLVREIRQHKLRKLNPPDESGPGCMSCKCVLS
Compound,pKd ([1]; 1:1 binding model),"NRAS /KRAS [2, 4]",HRAS /KRAS (HRAS wild-type protein; [5]),"pIC50 ([3]; NCI-H441 cells, 4 days)","pKd [1, 6]","NRAS /KRAS [2, 7]",HRAS /KRAS (HRAS wild-type protein; [8]),"pIC50 [3, 9]",pKd ([1]; Single Cycle Kinetics)
CCO[C@@H]1C[C@H]2C(=O)NC3(CC(C)(C)C3)C(=O)N(C)[C@@H](C3CCCC3)C(=O)N(C)[C@H](C(=O)N(C)CC)CC(=O)N(C)[C@@H](COC)C(=O)N[C@@H]([C@@H](C)CC)C(=O)N(C)CC(=O)N(C)[C@H]3C/C=C\CCN(C3=O)[C@@H](Cc3ccc(C)cc3)C(=O)N(C)CC(=O)N[C@@H](CCc3ccc(C(F)(F)F)c(Cl)c3)C(=O)N2C1 [PP2507],10.21,AA (a compound having 20 or more is denoted as AA),A (a compound having 10 or more and less than 20 is denoted as A),8.05,,,,,
CCO[C@@H]1C[C@H]2C(=O)NC3(CCC3)C(=O)N(C)[C@@H](C3CCCC3)C(=O)N(C)[C@H](C(=O)N(C)C)CC(=O)N(C)[C@@H](CC)C(=O)N[C@@H]([C@@H](C)CC)C(=O)N(C)CC(=O)N(C)[C@H]3CCCCCN(C3=O)[C@@H](Cc3ccc(F)cc3)C(=O)N(C)CC(=O)N[C@@H](CCc3cc(F)c(C(F)(F)F)c(F)c3)C(=O)N2C1 [PP1190],,,,,10.04,B (a compound having 3 or more and less than 10 is denoted as B),B (a compound having 3 or more and less than 10 is denoted as B),7.81,
CCC[C@H]1C(=O)N[C@@H]([C@@H](C)CC)C(=O)N(C2CC2)CC(=O)N(C)[C@H]2C/C(F)=C\CCN(C2=O)[C@@H](Cc2ccc(C(F)(F)F)cc2)C(=O)N(C)CC(=O)N[C@@H](CCc2cc(F)c(C(F)(F)F)c(F)c2)C(=O)N2C[C@H](OCC)C[C@H]2C(=O)NC2(CCC2)C(=O)N(C)[C@@H](C2CCCC2)C(=O)N(C)[C@H](C(=O)N(C)C)CC(=O)N1C [PP3518],,B (a compound having 3 or more and less than 10 is denoted as B),B (a compound having 3 or more and less than 10 is denoted as B),7.72,,,,,9.19
CCCO[C@@H]1C[C@H]2C(=O)NC3(CC(C)(C)C3)C(=O)N(C)[C@@H](C3CCCC3)C(=O)N(C)[C@H](C(=O)N(C)CC)CC(=O)N(C)[C@@H](COCC)C(=O)N[C@@H]([C@@H](C)CC)C(=O)N3C[C@@H](C)C[C@H]3C(=O)N(C)[C@H]3C/C=C\CCN(C3=O)[C@@H](Cc3ccc(C)cc3)C(=O)N(C)CC(=O)N[C@@H](CCc3ccc(C(F)(F)F)c(OC)c3)C(=O)N2C1 [PP3468],,B (a compound having 3 or more and less than 10 is denoted as B),A (a compound having 10 or more and less than 20 is denoted as A),6.86,,,,,8.47
CC[C@H](C)[C@@H]1NC(=O)[C@H](CC(C)C)N(C)C(=O)C[C@@H](C(=O)N(C)C)N(C)C(=O)[C@H](C2CCCC2)N(C)C(=O)C2(CCC2)NC(=O)[C@@H]2CCCN2C(=O)[C@H](CCc2cc(F)c(C(F)(F)F)c(F)c2)NC(=O)CN(C)C(=O)[C@H](Cc2ccc(C(F)(F)F)cc2)N2CC/C=C\C[C@@H](C2=O)N(C)C(=O)CN(C)C1=O [PP1272],,,,,9.96,A (a compound having 10 or more and less than 20 is denoted as A),A (a compound having 10 or more and less than 20 is denoted as A),7.62,
CCC[C@H]1C(=O)N[C@@H](C2CCCC2)C(=O)N(C)CC(=O)N(C)[C@H]2C/C=C\CCN(C2=O)[C@@H](Cc2ccc(C)cc2)C(=O)N(C)CC(=O)N[C@@H](CCc2ccc(C(F)(F)F)c(Cl)c2)C(=O)N2CC3(CC3)C[C@H]2C(=O)NC2(CCC2)C(=O)N(C)[C@@H](C(CC)CC)C(=O)N(C)[C@H](C(=O)N(C)C)CC(=O)N1C [PP3432],,AA (a compound having 20 or more is denoted as AA),A (a compound having 10 or more and less than 20 is denoted as A),7.24,,,,,9.15
CCO[C@@H]1C[C@H]2C(=O)NC3(CC(C)(C)C3)C(=O)N(C)[C@@H](CC(C)(C)C)C(=O)N(C)[C@H](C(=O)N(C)C)CC(=O)N(C)[C@@H](COC)C(=O)N[C@@H]([C@@H](C)CC)C(=O)N(C3CC3)CC(=O)N(C)[C@H]3C/C=C\CCN(C3=O)[C@@H](Cc3ccc(C(F)(F)F)cc3)C(=O)N(C)CC(=O)N[C@@H](CCc3ccc(C(F)(F)F)c(OC)c3)C(=O)N2C1 [PP2748],9.70,A (a compound having 10 or more and less than 20 is denoted as A),A (a compound having 10 or more and less than 20 is denoted as A),8.15,,,,,
CCO[C@@H]1C[C@H]2C(=O)NC3(CCCC3)C(=O)N(C)[C@@H](C3CCCC3)C(=O)N(C)[C@H](C(=O)N(C)C)CC(=O)N(C)[C@@H]([C@@H](C)OC)C(=O)N[C@@H]([C@@H](C)CC)C(=O)N3CCC[C@H]3C(=O)N(C)[C@H]3C/C=C\CCN(C3=O)[C@@H](Cc3ccc(C)cc3)C(=O)N(C)CC(=O)N[C@@H](CCc3cc(F)c(C(F)(F)F)c(F)c3)C(=O)N2C1 [PP3483],,A (a compound having 10 or more and less than 20 is denoted as A),A (a compound having 10 or more and less than 20 is denoted as A),7.25,,,,,9.06
CCO[C@@H]1C[C@H]2C(=O)NC3(CCC3)C(=O)N(C)[C@@H](C(CC)CC)C(=O)N(C)[C@H](C(=O)N(C)C)CC(=O)N(C)[C@@H](CC)C(=O)N[C@@H]([C@@H](C)CC)C(=O)N(C)CC(=O)N(C)[C@H]3C/C=C\CCN(C3=O)[C@@H](Cc3ccc(C(F)(F)F)cc3)C(=O)N(C)CC(=O)N[C@@H](CCc3cc(F)c(Cl)c(F)c3)C(=O)N2C1 [PP1230],,,,,9.11,A (a compound having 10 or more and less than 20 is denoted as A),A (a compound having 10 or more and less than 20 is denoted as A),6.96,
CCO[C@@H]1C[C@H]2C(=O)NC3(CC(C)(C)C3)C(=O)N(C)[C@@H](C(CC)CC)C(=O)N(C)[C@H](C(=O)N(C)C)CC(=O)N(C)[C@@H](CC3CC3)C(=O)N[C@@H]([C@@H](C)CC)C(=O)N(C)CC(=O)N(C)[C@H]3C/C=C\CCN(C3=O)[C@@H](CC3CCC(F)(F)CC3)C(=O)N(C)CC(=O)N[C@@H](CCc3ccc(C(F)(F)F)c(Cl)c3)C(=O)N2C1 [PP2495],9.08,A (a compound having 10 or more and less than 20 is denoted as A),A (a compound having 10 or more and less than 20 is denoted as A),7.76,,,,,
CCCCCC[C@H]1C(=O)N[C@@H]([C@@H](C)CC)C(=O)N(C)CC(=O)N(C)[C@H]2C/C=C\CCN(C2=O)[C@@H](Cc2ccc(C(F)(F)F)cc2)C(=O)N(C)CC(=O)N[C@@H](CCc2ccc(Cl)c(Cl)c2)C(=O)N2C[C@H](OCC)C[C@H]2C(=O)NC2(CCC2)C(=O)N(C)[C@@H](C2CCCC2)C(=O)N(C)[C@H](C(=O)N(C)C)CC(=O)N1C [PP1252],,,,,9.52,AA (a compound having 20 or more is denoted as AA),A (a compound having 10 or more and less than 20 is denoted as A),7.29,
CCO[C@@H]1C[C@H]2C(=O)NC3(CCCC3)C(=O)N(C)[C@@H](C3CCCC3)C(=O)N(C)[C@H](C(=O)N3CCOCC3)CC(=O)N(C)[C@@H](CC)C(=O)N[C@@H]([C@@H](C)CC)C(=O)N(C)CC(=O)N(C)[C@H]3C[C@@H](C)[C@@H](C)CN(C3=O)[C@@H](Cc3ccc(C(F)(F)F)cc3)C(=O)N(C)CC(=O)N[C@@H](CCc3ccc(C(F)(F)F)c(Cl)c3)C(=O)N2C1 [PP1359],,,,,10.17,A (a compound having 10 or more and less than 20 is denoted as A),B (a compound having 3 or more and less than 10 is denoted as B),8.49,
C#CC[C@H]1C(=O)N[C@@H]([C@@H](C)CC)C(=O)N2CCC[C@H]2C(=O)N(C)[C@H]2C/C=C\CCN(C2=O)[C@@H](Cc2ccc(C)cc2)C(=O)N(C)CC(=O)N[C@@H](CCc2ccc(C(F)(F)F)c(OC)c2)C(=O)N2C[C@H](OCC)C[C@H]2C(=O)OC2(CCC2)C(=O)N(C)[C@@H](C2CCCC2)C(=O)N(C)[C@H](C(=O)N(C)C)CC(=O)N1C [PP3389],,A (a compound having 10 or more and less than 20 is denoted as A),B (a compound having 3 or more and less than 10 is denoted as B),8.14,,,,,9.42
CCO[C@@H]1C[C@H]2C(=O)NC3(CCC3)C(=O)N(C)[C@@H](C3CCCC3)C(=O)N(C)[C@H](C(=O)N(C)C)CC(=O)N(C)[C@@H](Cc3ccc(Cl)c(Cl)c3)C(=O)N[C@@H]([C@@H](C)CC)C(=O)N(C)CC(=O)N(C)[C@H]3CCCCCN(C3=O)[C@@H](Cc3ccc(F)cc3)C(=O)N(C)CC(=O)N[C@@H](CCc3cc(F)c(C(F)(F)F)c(F)c3)C(=O)N2C1 [PP1158],,,,,9.74,B (a compound having 3 or more and less than 10 is denoted as B),B (a compound having 3 or more and less than 10 is denoted as B),7.24,
CCC[C@H]1C(=O)N[C@@H]([C@@H](C)CC)C(=O)N(C2CC2)CC(=O)N(C)[C@H]2C/C=C\CCN(C2=O)[C@@H](Cc2ccc(C)cc2)C(=O)N(C)CC(=O)N[C@@H](CCc2ccc(C(F)(F)F)c(OC)c2)C(=O)N2C[C@H](OCC)C[C@H]2C(=O)NC2(CC(C)(C)C2)C(=O)N(C)[C@@H](CC(C)(C)C)C(=O)N(C)[C@H](C(=O)N(C)C)CC(=O)N1C [PP2722],9.40,B (a compound having 3 or more and less than 10 is denoted as B),B (a compound having 3 or more and less than 10 is denoted as B),7.86,,,,,
